SMILES strings stand for the structures. Some results are limits rather than exact numbers.

The species entered for one data set is Homo sapiens. The data set is described as follows: Selectivity ratio of Ki for JAK2 (unknown origin) to Ki for TYK2 (unknown origin).
Data set [1] deals with Tyrosine-protein kinase JAK2 (Homo sapiens, UniProt O60674). The data set can be described thus: Inhibition of JAK2 (unknown origin) assessed as reduction in EPO-mediated STAT5 phosphorylation by cell based readout assay.
Data set [2] deals with T1, Cyclin-dependent kinase 2 (Homo sapiens, UniProt P24941). The data set can be described thus: Inhibition of CDK2 (unknown origin).
The nature of data set [3]: Protein binding in mouse plasma. In kind it is ADME, cell-free. The settings on record: read-out: PPB (converted).
Data set [4] can be described thus: Protein binding in rat plasma. Conditions: read-out: PPB (converted). Format: ADME, cell-free.
Data set [5] deals with Mus musculus. The data set can be described thus: Anti-inflammatory activity in IL-23/IL-1beta induced C57BL/6J mouse assessed as inhibition of IL-17F level in serum at 100 mg/kg, po pretreated for 30 mins followed by cytokine addition measured after 3 hrs by ELISA relative to control. Format: functional. On the technique in general: An ELISA detects its analyte on a solid surface through an enzyme-linked reagent.

The next data set concerns Plasma. The data set can be described thus: Unbound drug concentration in IL-23/IL-1beta induced C57BL/6J mouse plasma at 100 mg/kg, po preincubated for 30 mins followed by cytokine addition measured after 3.5 hrs post dose. Format: ADME, organism-based. The settings on record: in vivo.
The nature of data set [6]: Ratio of unbound drug concentration in IL-23/IL-1beta induced C57BL/6J mouse plasma at 30 mg/kg, po to EC50 for TYK2 (unknown origin) assessed as inhibition of IL-23 induced STAT3 phosphorylation.
The nature of data set [7]: Ratio of unbound drug concentration in IL-23/IL-1beta induced C57BL/6J mouse plasma at 100 mg/kg, po to EC50 for JAK2 (unknown origin) assessed as inhibition of EPO-mediated STAT5 phosphorylation. Format: organism-based. Conditions: in vivo.
A short description of data set [8]: Ratio of unbound drug concentration in IL-23/IL-1beta induced C57BL/6J mouse plasma at 70 mg/kg, po to EC50 for JAK2 (unknown origin) assessed as inhibition of EPO-mediated STAT5 phosphorylation. Format: organism-based. Conditions: in vivo.
Data set [9] relates to Mus musculus. The data set can be described thus: Antiinflammatory activity in IMQ-induced BALB/c mouse psoriasis model assessed as reduction in ear thickness at 100 mg/kg, po bid for 5 days meausred on day 6. Also on record: scale not given: the % may be the effect or the level left. Format: functional.
In data set [10] the test system is Mus musculus. The data set is described as follows: Toxicity in IMQ-induced BALB/c mouse model assessed as reduction in platelet levels at 100 mg/kg, po bid for 5 days. Format: organism-based. Also on record: scale not given: the % may be the effect or the level left. The settings on record: in vivo, 120 h.
Data set [11] relates to Mus musculus. The data set can be described thus: Toxicity in IMQ-induced BALB/c mouse model assessed as reduction in platelet levels at 30 mg/kg, po bid for 5 days. Format: organism-based. Also on record: scale not given: the % may be the effect or the level left. The settings on record: in vivo, 120 h.
The subject of data set [12] is Mus musculus. The data set is described as follows: Anti-inflammatory activity in IL-23/IL-1beta induced C57BL/6J mouse assessed as inhibition of IL-17F level in serum pretreated po for 30 mins followed by cytokine addition measured after 3 hrs by ELISA. In kind it is functional, organism-based.
For data set [13], the system named is Mus musculus. The data set is described as follows: Antiinflammatory activity in IMQ-induced BALB/c mouse model assessed as reduction in serum IL-17F production administered po bid for 5 days. Format: functional, organism-based.
Data set [14] concerns the target T1, Cyclin-dependent kinase 2. Conditions: 70 nM.

Chain of Tyrosine-protein kinase JAK2 (O60674 whole entry): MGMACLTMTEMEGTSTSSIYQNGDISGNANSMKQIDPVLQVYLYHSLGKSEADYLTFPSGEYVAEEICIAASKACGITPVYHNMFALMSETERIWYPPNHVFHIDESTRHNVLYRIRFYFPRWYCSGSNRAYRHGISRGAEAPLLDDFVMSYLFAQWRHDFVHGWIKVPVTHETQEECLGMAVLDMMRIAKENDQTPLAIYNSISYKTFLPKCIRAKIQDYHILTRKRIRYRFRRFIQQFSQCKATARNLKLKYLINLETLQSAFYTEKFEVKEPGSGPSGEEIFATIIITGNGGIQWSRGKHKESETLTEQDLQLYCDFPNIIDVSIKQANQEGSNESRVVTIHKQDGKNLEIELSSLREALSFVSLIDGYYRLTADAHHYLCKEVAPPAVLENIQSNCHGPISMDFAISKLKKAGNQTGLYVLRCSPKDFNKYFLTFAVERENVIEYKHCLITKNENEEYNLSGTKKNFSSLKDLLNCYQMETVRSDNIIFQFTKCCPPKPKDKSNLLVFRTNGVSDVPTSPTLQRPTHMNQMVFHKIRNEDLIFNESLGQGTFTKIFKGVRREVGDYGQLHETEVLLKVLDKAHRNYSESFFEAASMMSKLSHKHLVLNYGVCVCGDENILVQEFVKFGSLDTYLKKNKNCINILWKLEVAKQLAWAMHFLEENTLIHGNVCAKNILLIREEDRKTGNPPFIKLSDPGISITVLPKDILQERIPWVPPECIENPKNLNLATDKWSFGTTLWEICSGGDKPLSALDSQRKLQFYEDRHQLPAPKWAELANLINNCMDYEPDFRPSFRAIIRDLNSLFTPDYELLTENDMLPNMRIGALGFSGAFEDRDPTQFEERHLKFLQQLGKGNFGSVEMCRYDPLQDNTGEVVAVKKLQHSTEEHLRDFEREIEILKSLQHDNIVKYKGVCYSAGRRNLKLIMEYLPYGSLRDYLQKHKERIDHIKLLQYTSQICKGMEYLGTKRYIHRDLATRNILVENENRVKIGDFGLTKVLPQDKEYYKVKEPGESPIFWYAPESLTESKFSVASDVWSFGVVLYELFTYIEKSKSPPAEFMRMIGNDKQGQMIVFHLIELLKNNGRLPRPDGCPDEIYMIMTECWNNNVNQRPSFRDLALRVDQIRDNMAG

As usually defined, the EC50 is the concentration at which the effect is half-maximal. A word on the Ki: it is a measure of affinity in units of concentration, obtained from inhibition or displacement. Broadly, the inhibition in vivo is how much of the control response was suppressed. By inhibition is commonly meant how much of the control response was suppressed. As to `Cc1cc(Nc2nccc3nc(-c4c(Cl)cc(C#N)cc4Cl)[nH]c23)ncn1`, the Ratio Ki in the data set filed under Homo sapiens turned out to be 31. The EC50 in data set [1] was determined as 1400 nM. The compound also yielded a Ki in data set [2] of 89 nM. For the same compound, the fraction unbound in [3] is 0.034; in data set [4], 0.039. The inhibition in vivo at 100 mg/kg in the data set with Mus musculus [5] amounted to 87%. In addition, the “Cp(f)” value with Plasma is 2600 nM. The Ratio was found to be 13 in data set [6], 1.9 in data set [7] and 1.1 in [8]. In addition, the Activity was 82% in the data set on Mus musculus [9], 54% in the data set on Mus musculus [10] and 21% in the data set with Mus musculus [11]. In addition, the inhibition result is “Dose-dependent effect” in the data set on Mus musculus [12], “Dose-dependent effect” in the data set with Mus musculus [13] and greater than 50% in data set [14].
